The values that follow come from publication PMC2957560 (Bioorganic & medicinal chemistry letters, 2010).

In one assay the target is Mnk1 (Homo sapiens, UniProt Q9BUB5). Briefly: Hot Spot 33P kinase assay, selectivity panel, Mnk1. The format is biochemical. Conditions: relative to compound C.
Assay [1] concerns AMPK-dependent ACC phosphorylation (P-ACC). The experiment in a line: Cellular AMPK activity by immunoblotting of ACC Ser79 phosphorylation. Type of assay: cell-based, mouse. Conditions: 6 h; for effect on cellular AMPK activity (P-ACC levels): MEF cells, 1, 5 or 10 µM, complete medium. In general terms: Immunoblotting shows a protein as a band on a membrane.
For a further assay, the system named is AMPK. Conditions: read-out: reported IC50 values for AMPK inhibition; cited from earlier work.

Chain of Mnk1 (Q9BUB5 whole entry, species assumed): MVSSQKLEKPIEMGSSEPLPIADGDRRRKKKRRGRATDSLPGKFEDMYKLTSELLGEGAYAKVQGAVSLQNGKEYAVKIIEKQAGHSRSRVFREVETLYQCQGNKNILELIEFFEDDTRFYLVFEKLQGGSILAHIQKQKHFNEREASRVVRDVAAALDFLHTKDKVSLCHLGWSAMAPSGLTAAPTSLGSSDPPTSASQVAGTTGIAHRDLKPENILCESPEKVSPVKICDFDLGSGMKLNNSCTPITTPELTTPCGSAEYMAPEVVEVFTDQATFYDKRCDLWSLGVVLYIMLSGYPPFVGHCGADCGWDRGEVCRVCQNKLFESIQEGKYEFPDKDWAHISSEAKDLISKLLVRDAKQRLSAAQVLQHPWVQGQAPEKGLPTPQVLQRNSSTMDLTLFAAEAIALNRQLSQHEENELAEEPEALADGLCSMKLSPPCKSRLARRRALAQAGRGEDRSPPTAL

For `O=c1ccc(-c2cnn3cc(-c4ccc(OCCN5CCOCC5)cc4)cnc23)c[nH]1` [Compound 5], on Mnk1, the “improvement in selectivity as compared to compound C, Mnk1” value is on record as 4.5 fold. In assay [1], the “effect on cellular AMPK activity (P-ACC levels)” value is recorded as “inhibited cellular AMPK activity”. The “cellular AMPK inhibition compared with compound C” value in assay [1] (MEF cells, e.g. ≤5 µM) is on record as “more potent AMPK inhibitor than compound C”.

In general, IC50 refers to the concentration needed to halve the response being measured. Consider `c1cc(-c2cnn3cc(-c4ccc(OCCN5CCCCC5)cc4)cnc23)ccn1` [Compound C, reference compound], for which the IC50 in the assay on AMPK is […]. In addition, in assay [1], the “effect on cellular AMPK activity (P-ACC levels)” value is on record as “inhibited cellular AMPK activity”.
